From patent publication US12331042B2, “Compounds suitable for the treatment and prophylaxis of muscle wasting and other conditions” (priority 2019, dated 2025)
“Also recorded” adds a separate entry of the source.

What was measured:
[1] = test system: citrate synthase, succinate dehydrogenase, mitochondrial complex I, cytoplasmic enzymes; assay: Enzyme activity measurements in diaphragm tissue, CHF mice; format: in vivo; details: CHF+compound
Experimental: Diaphragmatic tissue was homogenized in relaxing buffer, and aliquots were used for enzyme activity measurements. Enzyme activities for lactate dehydrogenase (EC 1.1.1.27), pyruvate kinase (EC 2.7.1.40), succinate dehydrogenase (SDH, EC 1.3.5.1), citrate synthase (CS, EC 2.3.3.1), β-hydroxyacyl-COA dehydrogenase (EC 1.1.1.35), and mitochondrial complex I were measured spectrophotometrically as previously described in detail (Mukherjee et al., J Biol Chem, 1976, 251, 2155-2160; Vanderlinde et al., Ann Clin Lab Sci, 1985, 15, 13-31; Dzeja et al., Mol Cell Biochem, 1999, 201, 33-40; Takashi et al., Biochim Biohphys Acta, 1979, 574, 258-267; Schwarzer et al., J Physiol, 2014, 592, 3767-3782). Enzyme activity data are presented as the fold change relative to sham.

[2] = test system: C57BL/6N mice inoculated with B16F10 melanoma cells; assay: Tumor mouse model (B16F10 melanoma); format: in vivo; details: 0.1 weight-% in chow, vs tumor mice
From the text: 8 weeks old female C57BL/6N mice were inoculated with B16F10 melanoma cells (9×10^5 cells) or saline (sham, n=10). Within the first 3 days after tumor inoculation, the B16F10 mice as well as the sham mice received regular chow. Then the B16F10 mice were randomly divided in three groups, where the first group received MyoMed-946 chow (Tumor+MyoMed-946, n=10), the second group received MyoMed-205 chow (Tumor+MyoMed-205, n=10) and the third group received an identical chow but without the addition of the selected compounds (Tumor, n=10). The compound concentration in the chow was 0.1 weight-%, resulting in a daily compound intake per mouse of about 3 mg. Also the sham group was fed with an identical chow but without the addition of the selected compound. Wire-hang tests (muscle function) were performed with each mouse 9, 16 and 23 days after tumor inoculation. For this purpose, a standard wire hang construction was used with a wire (length: of 40 cm, diameter: 2.5 mm) at a height of 70 cm above the floor. Under the center of the wire a large box with sawdust was placed. For testing, the mouse was hung to the wire with the two limbs and hang time was recorded. Each animal had three attempts for 180 sec. max each. After three attempts, the maximal holding impulse was calculated (hanging time×body weight).
Mice were sacrificed 25 days after tumor inoculation. […]

[3] = test system: porin, telethonin, MRPS-5, MuRF1, MuRF2, Tom20 expression; assay: Western blot analysis of diaphragm, CHF mice; format: in vivo
Experimental: For western blot analyses, frozen diaphragm was homogenized in relaxing buffer (90 mmol/L HEPES, 126 mmol/L potassium chloride, 36 mmol/L sodium chloride, 1 mmol/L magnesium chloride, 50 mmol/L EGTA, 8 mmol/L ATP, and 10 mmol/L creatine phosphate, pH 7.4) containing a protease inhibitor mix (Inhibitor Mix M, Serva, Heidelberg, Germany) and sonicated. Protein concentration of the supernatant was determined (bicinchoninic acid assay, Pierce, Bonn, Germany), and aliquots (5-20 μg) were separated by sodium dodecyl sulfate-polyacrylamide gel electrophoresis. Proteins were transferred to a polyvinylidene fluoride membrane and incubated overnight at 4° C. using the following primary antibodies: porin and telethonin (both 1/1000, Abcam, Cambridge, UK), MRPS-5 ( 1/500, Thermo Fisher, Rockford, IL, USA), MuRF1 and MuRF2 (both 1/1000; commercially available from Myomedix, Neckargemünd, Germany), and Tom20 (1:200, Santa Cruz Biotechnologies, Heidelberg, Germany). Membranes were subsequently incubated with a horseradish peroxidase conjugated secondary antibody, specific bands were visualized by enzymatic chemiluminescence (Super Signal West Pico, Thermo Fisher Scientific Inc., Bonn, Germany), and densitometry was quantified using a one-dimensional scan software package (Scanalytics Inc., Rockville, MD, USA). Measurements were normalized to the loading control GAPDH ( 1/30000; HyTest Ltd, Turku, Finland) or α-tubulin (1:1000, Santa Cruz Biotechnologies). All data are presented as fold change relative to sham.

[4] = test system: MuRF1 mRNA in C2C12 myotubes; assay: MuRF1 mRNA in C2C12 myotubes treated with dexamethasone (RT-PCR); format: cell-based, Murine; details: pre-treatment at 0.1 μmol/L and 10 μmol/L, then 24 h dexamethasone 10 μmol/L
Experimental: Murine C2C12 myoblasts (CRL-1772, ATCC) were cultured in DMEM (Lonza; Basel, Switzerland) supplemented with 10% fetal calf serum (FCS; Gibco®Invitrogen, Carlsbad, CA). For induction of differentiation into myotubes, subconfluent cultures were switched to DMEM containing 2% horse serum (Sigma-Aldrich; Seelze, Germany). Myotubes were subsequently pre-treated for 2 h with increasing compound concentrations (0.1 to 10 μmol/L, dissolved in DMSO) or with an equal volume of DMSO before treatment for 24 h with 10 μmol/L dexamethasone (DEX; Sigma-Aldrich; Seelze, Germany). Myotube diameter was then evaluated by image analysis software (Analysis 3.0, Olympus Soft Imaging Solutions GmbH, Munster, Germany). To determine cytotoxicity of selected compounds, myoblasts or myotubes were incubated with increasing concentrations for 24 h. Subsequently, the concentration of lactate dehydrogenase (LDH) activity was quantified in the cell culture supernatant as a measure for cell destruction as described in Bellocci et al., Anal Biochem, 2008, 374, 48-55.
After the incubation period, Total RNA was isolated from C2C12 cells and reverse transcribed into cDNA using random hexamers and Sensiscript reverse transcriptase (Qiagen, Hilden, Germany). An aliquot of the cDNA was used for quantitative RT-PCR, applying the Light Cycler system (Roche Diagnostics, Mannheim, Germany). […]

## Cc1cc(=O)oc2cc(OCc3ccc(C(=O)OCC(=O)NC(=O)NCc4ccco4)cc3)ccc12 [MyoMed-946, [2-(2-furylmethylcarbamoylamino)-2-oxo-ethyl] 4-[(4-methyl-2-oxo-chromen-7-yl)oxymethyl]benzoate]
[1]; reduced by 21% in CHF vs sham
  citrate synthase enzyme activity: attenuated; also recorded: partially improved
[1]; reduced by 27% in CHF vs sham
  mitochondrial complex I enzyme activity: attenuated; also recorded: partially improved
[1]; reduced by 28% in CHF vs sham
  succinate dehydrogenase enzyme activity: attenuated; also recorded: partially improved
[2]; 25 days after inoculation, at least to certain extent
  tumor induced skeletal muscle atrophy (TA muscle weight): attenuated
[2]; 9, 16 and 23 days after inoculation
  loss of muscle function in wire-hang test: attenuated; also recorded: significantly attenuates the loss of muscle function
[3]; CHF+compound
  TOM-20 expression: attenuated; also recorded: modest, but statistically significant, improvement
  mitochondrial porin expression: attenuated; also recorded: near-normal
[3]; CHF+compound vs CHF
  reduction of Mrps5 expression (Western blot): reversed
  up-regulation of MuRF1 expression: attenuated; also recorded: prevented
  up-regulation of MuRF2 expression: attenuated; also recorded: prevented
[3]; trend (P=0.08) in CHF group
  reduced expression of telethonin: attenuated; also recorded: not evident
[4]
  expression of MuRF1 at the mRNA level: reduced MuRF1 mRNA levels; also recorded: prevented
